The test system of data set [1] is Human immunodeficiency virus 1. Description: Antiviral activity against HIV1 3B in human MT4 cells assessed as protection of cell against virus-induced cytopathogenicity. The class given is functional, organism-based. The settings on record: Human immunodeficiency virus 1, 3B. A general note: Damage to the host cells serves as the signal in cytopathic effect assays.

Data set [2] is described as follows: Selectivity index, ratio of CC50 for human MT4 cells to EC50 for HIV1 3B. The class given is toxicity, cell-based. As to conditions: for selectivity ratio: MT4 cells, read-out: Ratio CC50/EC50; for Activity: mt4; call rule not given here.
Data set [3] in a line: Cytotoxicity against human MT4 cells. It is filed as cell-based.

Each structure is given as a SMILES string. Where only a bound is given, the exact number is not on record here.

In the case of `Cc1ccc(-n2c(C)nnc2SCC(=O)Nc2ccccc2)cc1`, the half-maximal effective concentration (EC50) in data set [1] stood at 2.05 µM.
The same measure, in the same setting: under `NS(=O)(=O)c1ccc(NC(=O)CSc2nnc(Br)n2-c2ccc(C3CC3)c3ccccc23)c(Cl)c1` stands 0.14 µM.
Take `O=C(CSc1snnc1-c1ccccc1)Nc1ccccc1Cl`: the selectivity ratio in data set [2] was over 13. This compound also showed a half-maximal cytotoxic concentration (CC50) in data set [3] of over 345 µM. Moreover, the half-maximal effective concentration (EC50) in data set [1] was 26.1 µM.
Consider `O=C(CSc1snnc1-c1ccccc1)Nc1ccccc1F`, for which, in data set [2], the Activity entry is on record as “Not Active”. Also, the CC50 in data set [3] is over 362 µM. For the same compound, the EC50 in data set [1] stood at 362 µM.
For `O=C(CSc1snnc1-c1ccccc1)Nc1ccccc1Br`, the selectivity ratio in data set [2] was over 14. The compound further came in with a cytotoxic concentration (CC50) in data set [3] of over 308 µM. Also, the EC50 in data set [1] came to 22.4 µM.
Turning to `O=C(CSc1snnc1-c1ccc(Cl)cc1Cl)Nc1ccccc1F`, in data set [2], the selectivity ratio worked out at 145. Moreover, it took 19.5 µM to reach half-maximal cytotoxicity in data set [3] (CC50). The EC50 in data set [1] amounted to 0.135 µM.
The like results for `O=C(CSc1snnc1-c1ccc(Cl)cc1Cl)Nc1ccccc1Br` were, in that order, at least 981, at least 147 µM and 0.149 µM.
On to `Cc1ccc(NC(=O)CSc2snnc2-c2ccc(Cl)cc2Cl)c(Br)c1`, for which the selectivity ratio in data set [2] was over 1260. Further, the cytotoxic concentration (CC50) in data set [3] is over 256 µM. In data set [1], the EC50 amounted to 0.204 µM.
The like results for `COC(=O)c1ccc(NC(=O)CSc2snnc2-c2ccccc2)c(Br)c1` were, in that order, over 53, over 269 µM and 5.1 µM.
The like results for `CCOC(=O)c1ccc(NC(=O)CSc2snnc2-c2ccc(OC)cc2)c(Br)c1` were, in that order, over 82, over 246 µM and 3.01 µM.
The like results for `O=C(CSc1snnc1-c1ccc(F)cc1F)Nc1ccccc1F` were, in that order, 27, 148 µM and 5.45 µM.
As for `O=C(CSc1snnc1-c1ccc(F)cc1F)Nc1ccccc1Br`, the midpoint of cytotoxicity in data set [3], the CC50, lay at 144 µM. Also, the half-maximal effective concentration (EC50) in data set [1] was found to be 2.26 µM.
As for `O=C(CSc1snnc1-c1ccc(Cl)cc1Cl)Nc1ccccc1Cl`, in data set [2], the selectivity ratio stood at 943. This compound showed a half-maximal cytotoxic concentration (CC50) in data set [3] of 111 µM. The concentration for a half-maximal effect (EC50) in data set [1] came out at 0.118 µM.
The like results for `O=C(CSc1snnc1-c1ccc(F)cc1F)Nc1ccccc1Cl` were, in that order, 146, 178 µM and 1.23 µM.
In the case of `COc1ccc(-c2nnsc2SCC(=O)Nc2ccccc2[N+](=O)[O-])cc1`, the selectivity ratio in data set [2] was at least 283. Moreover, the CC50 in data set [3] is at least 281 µM. Also, the concentration for a half-maximal effect (EC50) in data set [1] was 0.99 µM.
In the case of `COc1ccc(-c2nnsc2SCC(=O)Nc2ccccc2F)cc1`, the Activity entry in data set [2] is “Not Active”. This compound also showed a half-maximal cytotoxic concentration (CC50) in data set [3] of over 333 µM. Also, the concentration giving a half-maximal response (EC50) in data set [1] was 333 µM.
With `O=C(CSc1snnc1-c1ccc(Cl)cc1Cl)Nc1ccccc1[N+](=O)[O-]`, the selectivity ratio in data set [2] was over 4880. Moreover, the 50% cytotoxic concentration (CC50) in data set [3] was over 283 µM. Besides, the EC50 in data set [1] came to 0.059 µM.
For the compound `COc1ccc(-c2nnsc2SCC(=O)Nc2ccc(C)cc2Br)cc1`, in data set [2], the selectivity ratio was determined as 49. Moreover, it took 249 µM to reach half-maximal cytotoxicity in data set [3] (CC50). Besides, in data set [1], the EC50 turned out to be 5.06 µM.
In the case of `O=C(CSc1snnc1-c1ccccc1)Nc1ccccc1[N+](=O)[O-]`, the Activity result in data set [2] was “Not Active”. The compound further registered a CC50 in data set [3] of at least 247 µM. For the same compound, the EC50 in data set [1] is at least 54.2 µM.
In the case of `Cc1ccc(NC(=O)CSc2snnc2-c2ccccc2)c(Br)c1`, the selectivity ratio in data set [2] is over 22. In addition, in data set [3], the CC50 is over 297 µM. In addition, the EC50 in data set [1] is 13.7 µM.
As for `CCOC(=O)c1ccc(NC(=O)CSc2snnc2-c2ccc(Cl)cc2Cl)c(Br)c1`, in data set [2], the selectivity ratio is over 2300. In addition, the 50% cytotoxic concentration (CC50) in data set [3] is over 228 µM. The EC50 in data set [1] worked out at 0.099 µM.
The like results for `COc1ccc(-c2nnsc2SCC(=O)Nc2ccccc2Br)cc1` were, in that order, over 90, over 286 µM and 3.19 µM.
The like results for `CCOC(=O)c1ccc(NC(=O)CSc2snnc2-c2ccccc2)c(Br)c1` were, in that order, at least 45, at least 232 µM and 5.21 µM.
On to `COC(=O)c1ccc(NC(=O)CSc2snnc2-c2ccc(OC)cc2)c(Br)c1`, for which the selectivity ratio in data set [2] is 97. Further, in data set [3], the CC50 is 195 µM. The half-maximal effective concentration (EC50) in data set [1] was found to be 2 µM.
The like results for `Cc1ccc(NC(=O)CSc2snnc2-c2ccc(F)cc2F)c(Br)c1` were, in that order, over 189, over 274 µM and 1.45 µM.
As for `COc1ccc(-c2nnsc2SCC(=O)Nc2ccccc2Cl)cc1`, the selectivity ratio in data set [2] is over 121. In addition, the CC50 in data set [3] was over 319 µM. Besides, the EC50 in data set [1] is 2.63 µM.
`O=C(CSc1snnc1-c1ccc(F)cc1F)Nc1ccccc1[N+](=O)[O-]`: the selectivity ratio in data set [2] was determined as 40. Besides, the CC50 in data set [3] is 165 µM. Also, the EC50 in data set [1] worked out at 4.14 µM.
Regarding `CC(C)Nc1cccnc1N1CCN(C(=O)c2cc3cc(NS(C)(=O)=O)ccc3[nH]2)CC1` [DELAVIRDINE], the selectivity ratio in data set [2] was over 12. Moreover, the half-maximal cytotoxic concentration (CC50) in data set [3] was over 3.83 µM. The concentration giving a half-maximal response (EC50) in data set [1] came to 0.32 µM.
The like results for `O=C1Nc2ccc(Cl)cc2[C@@](C#CC2CC2)(C(F)(F)F)O1` [EFAVIRENZ] were, in that order, over 1430, over 6.34 µM and 0.0044 µM.
Take `Cc1ccnc2c1NC(=O)c1cccnc1N2C1CC1` [NEVIRAPINE]: the CC50 in data set [3] is over 15 µM.
With `Cc1cn([C@H]2C[C@H](N=[N+]=[N-])[C@@H](CO)O2)c(=O)[nH]c1=O` [ZIDOVUDINE], in data set [2], the selectivity ratio was over 6190. In data set [3], the CC50 was over 93.5 µM. In data set [1], the concentration giving a half-maximal response (EC50) stood at 0.0151 µM.

The term EC50 denotes the concentration needed to bring the measured effect to its halfway point. As usually defined, the CC50 is the concentration giving 50% cytotoxicity.

The record behind these values is ChEMBL document CHEMBL1142475, “1,2,3-Thiadiazole thioacetanilides as a novel class of potent HIV-1 non-nucleoside reverse transcriptase inhibitors” (Bioorg Med Chem Lett, 2008).
